The structures appear in SMILES notation.

The target of this experiment is Tie-2 (Homo sapiens, UniProt Q02763). In words: Tie-2 tyrosine kinase activity: kinase-dependent ATP consumption (pEY substrate, luciferase/luciferin chemiluminescence) or 33P-ATP incorporation into substrate. It counts as biochemical. As to conditions: Tie-2 (human enzyme) inhibition, Table 2, class symbols A-D. In short, it runs like this: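 Tie-2 kinase activity is read either as ATP consumption with pEY substrate by luciferase/luciferin chemiluminescence, or as 33P incorporation from 33P-ATP into plate-adsorbed substrate by scintillation counting. IC50 values are binned as A <50 nM, B >50–1000 nM, C >1000–<10,000 nM, and D ≥10,000 nM.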
Chain of Tie-2 (Q02763 23-1124): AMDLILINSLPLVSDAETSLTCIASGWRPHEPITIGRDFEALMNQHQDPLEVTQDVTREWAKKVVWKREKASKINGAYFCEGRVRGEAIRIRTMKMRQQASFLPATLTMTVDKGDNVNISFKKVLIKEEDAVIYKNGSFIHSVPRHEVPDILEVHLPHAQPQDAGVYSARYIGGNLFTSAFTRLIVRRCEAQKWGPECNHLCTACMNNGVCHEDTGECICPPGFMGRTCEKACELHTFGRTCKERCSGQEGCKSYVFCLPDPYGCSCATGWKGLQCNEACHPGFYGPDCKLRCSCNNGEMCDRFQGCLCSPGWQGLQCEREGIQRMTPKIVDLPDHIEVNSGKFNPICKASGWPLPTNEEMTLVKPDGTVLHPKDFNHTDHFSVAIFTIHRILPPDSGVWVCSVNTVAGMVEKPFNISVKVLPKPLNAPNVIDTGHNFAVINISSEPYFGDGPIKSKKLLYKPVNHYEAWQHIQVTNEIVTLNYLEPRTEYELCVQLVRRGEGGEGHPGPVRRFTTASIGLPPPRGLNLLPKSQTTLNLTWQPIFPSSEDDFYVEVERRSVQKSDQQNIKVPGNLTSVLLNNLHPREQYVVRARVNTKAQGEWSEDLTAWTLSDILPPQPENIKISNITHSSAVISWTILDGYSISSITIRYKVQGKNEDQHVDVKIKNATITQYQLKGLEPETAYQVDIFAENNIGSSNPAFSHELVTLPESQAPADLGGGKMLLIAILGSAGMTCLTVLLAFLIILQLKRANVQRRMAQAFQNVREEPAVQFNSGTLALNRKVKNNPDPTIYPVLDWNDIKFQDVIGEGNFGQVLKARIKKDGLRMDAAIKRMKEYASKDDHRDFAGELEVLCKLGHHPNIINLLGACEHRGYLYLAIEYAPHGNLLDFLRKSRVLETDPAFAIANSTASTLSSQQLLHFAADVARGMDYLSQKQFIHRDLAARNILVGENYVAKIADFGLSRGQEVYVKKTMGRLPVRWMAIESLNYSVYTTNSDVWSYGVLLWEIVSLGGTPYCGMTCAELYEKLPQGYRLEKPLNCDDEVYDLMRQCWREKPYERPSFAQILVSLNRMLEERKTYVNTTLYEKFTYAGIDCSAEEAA
What is called IC50 is the concentration that inhibits the measured activity by half. Read a high IC50 as a need for much substance. In the case of `COc1ccc(-c2nc(-c3ccncc3)nn2CCN(C(=O)Nc2ccc(C(C)=O)cc2)C2CCCC2)cc1Cl` [Entry 99, N′-(4-acetylphenyl)-N-(2-{5-[3-chloro-4-(methyloxy)phenyl]-3-pyridin-4-yl-1H-1,2,4-triazol-1-yl}ethyl)-N-cyclopentylurea], the IC50 was no less than 10 µM. The result for `COc1ccc(-c2nc(-c3ccncc3)nn2CCN(C(=O)Nc2ccc(C(C)C)cc2)C2CCCC2)cc1Cl` [Entry 100, N-(2-{5-[3-chloro-4-(methyloxy)phenyl]-3-pyridin-4-yl-1H-1,2,4-triazol-1-yl}ethyl)-N-cyclopentyl-N′-[4-(1-methylethyl)phenyl]urea] reads no less than 10 µM; that for `COc1ccc(-c2nc(-c3ccncc3)nn2CCN(C(=O)Nc2ccc(C#N)cc2)C2CCCC2)cc1Cl` [Entry 101, N-(2-{5-[3-chloro-4-(methyloxy)phenyl]-3-pyridin-4-yl-1H-1,2,4-triazol-1-yl}ethyl)-N′-(4-cyanophenyl)-N-cyclopentylurea], no less than 10 µM. Turning to `COc1ccc(-c2nc(-c3ccncc3)nn2CCN(C(=O)Nc2ccccc2-c2ccccc2)C2CCCC2)cc1Cl` [Entry 102, N′-biphenyl-2-yl-N-(2-{5-[3-chloro-4-(methyloxy)phenyl]-3-pyridin-4-yl-1H-1,2,4-triazol-1-yl}ethyl)-N-cyclopentylurea], the IC50 was no less than 10 µM. The result for `CCCCCNC(=O)N(CCn1nc(-c2ccncc2)nc1-c1ccc(OC)c(Cl)c1)C1CCCC1` [Entry 103, N-(2-{5-[3-chloro-4-(methyloxy)phenyl]-3-pyridin-4-yl-1H-1,2,4-triazol-1-yl}ethyl)-N-cyclopentyl-N′-pentylurea] reads no less than 10 µM; that for `CCCCCCCNC(=O)N(CCn1nc(-c2ccncc2)nc1-c1ccc(OC)c(Cl)c1)C1CCCC1` [Entry 104, N-(2-{5-[3-chloro-4-(methyloxy)phenyl]-3-pyridin-4-yl-1H-1,2,4-triazol-1-yl}ethyl)-N-cyclopentyl-N′-heptylurea], no less than 10 µM; that for `COc1ccc(-c2nc(-c3ccncc3)nn2CCN(C(=O)Nc2cccc(Cl)c2)C2CCCC2)cc1Cl` [Entry 105, N-(2-{5-[3-chloro-4-(methyloxy)phenyl]-3-pyridin-4-yl-1H-1,2,4-triazol-1-yl}ethyl)-N′-(3-chlorophenyl)-N-cyclopentylurea], no less than 10 µM. The result for `COc1ccc(-c2nc(-c3ccncc3)nn2CCN(C(=O)Nc2cccc(C)c2)C2CCCC2)cc1Cl` [Entry 106, N-(2-{5-[3-chloro-4-(methyloxy)phenyl]-3-pyridin-4-yl-1H-1,2,4-triazol-1-yl}ethyl)-N-cyclopentyl-N′-(3-methylphenyl)urea] reads no less than 10 µM; that for `COc1ccc(-c2nc(-c3ccncc3)nn2CCN(C(=O)NC(C)(C)C)C2CCCC2)cc1Cl` [Entry 107, N-(2-{5-[3-chloro-4-(methyloxy)phenyl]-3-pyridin-4-yl-1H-1,2,4-triazol-1-yl}ethyl)-N-cyclopentyl-N′-(1,1-dimethylethyl)urea], no less than 10 µM.

`COc1ccc(-c2nc(-c3ccncc3)nn2CCN(C(=O)NC(C)C)C2CCCC2)cc1Cl` [Entry 108, N-(2-{5-[3-chloro-4-(methyloxy)phenyl]-3-pyridin-4-yl-1H-1,2,4-triazol-1-yl}ethyl)-N-cyclopentyl-N′-(1-methylethyl)urea] returned an IC50 of no less than 10 µM.

`CCNC(=O)N(CCn1nc(-c2ccncc2)nc1-c1ccc(OC)c(Cl)c1)C1CCCC1` [Entry 109, N-(2-{5-[3-chloro-4-(methyloxy)phenyl]-3-pyridin-4-yl-1H-1,2,4-triazol-1-yl}ethyl)-N-cyclopentyl-N′-ethylurea] displayed an IC50 of no less than 10 µM. The result for `CCCNC(=O)N(CCn1nc(-c2ccncc2)nc1-c1ccc(OC)c(Cl)c1)C1CCCC1` [Entry 110, N-(2-{5-[3-chloro-4-(methyloxy)phenyl]-3-pyridin-4-yl-1H-1,2,4-triazol-1-yl}ethyl)-N-cyclopentyl-N′-propylurea] reads no less than 10 µM; that for `CCOc1ccc(NC(=O)N(CCn2nc(-c3ccncc3)nc2-c2ccc(OC)c(Cl)c2)C2CCCC2)cc1` [Entry 111, N-(2-{5-[3-chloro-4-(methyloxy)phenyl]-3-pyridin-4-yl-1H-1,2,4-triazol-1-yl}ethyl)-N-cyclopentyl-N′-[4-(ethyloxy)phenyl]urea], 1 to 10 µM. The result for `CCc1ccc(NC(=O)N(CCn2nc(-c3ccncc3)nc2-c2ccc(OC)c(Cl)c2)C2CCCC2)cc1` [Entry 112, N-(2-{5-[3-chloro-4-(methyloxy)phenyl]-3-pyridin-4-yl-1H-1,2,4-triazol-1-yl}ethyl)-N-cyclopentyl-N′-(4-ethylphenyl)urea] reads no less than 10 µM. The result for `COc1ccc(-c2nc(-c3ccncc3)nn2CCN(C(=O)NCCc2ccccc2)C2CCCC2)cc1Cl` [Entry 113, N-(2-{5-[3-chloro-4-(methyloxy)phenyl]-3-pyridin-4-yl-1H-1,2,4-triazol-1-yl}ethyl)-N-cyclopentyl-N′-(2-phenylethyl)urea] reads no less than 10 µM; that for `C=C(C)c1cccc(C(C)(C)NC(=O)N(CCn2nc(-c3ccncc3)nc2-c2ccc(OC)c(Cl)c2)C2CCCC2)c1` [Entry 114, N-(2-{5-[3-chloro-4-(methyloxy)phenyl]-3-pyridin-4-yl-1H-1,2,4-triazol-1-yl}ethyl)-N-cyclopentyl-N′-{1-methyl-1-[3-(1-methylethenyl)phenyl]ethyl}urea], no less than 10 µM. Regarding `COc1ccc(-c2nc(-c3ccncc3)nn2CCN(C(=O)Nc2ccccc2F)C2CCCC2)cc1Cl` [Entry 115, N-(2-{5-[3-chloro-4-(methyloxy)phenyl]-3-pyridin-4-yl-1H-1,2,4-triazol-1-yl}ethyl)-N-cyclopentyl-N′-(2-fluorophenyl)urea], the IC50 was no less than 10 µM. The result for `COc1ccc(-c2nc(-c3ccncc3)nn2CCN(C(=O)Nc2ccc(F)cc2F)C2CCCC2)cc1Cl` [Entry 116, N-(2-{5-[3-chloro-4-(methyloxy)phenyl]-3-pyridin-4-yl-1H-1,2,4-triazol-1-yl}ethyl)-N-cyclopentyl-N′-(2,4-difluorophenyl)urea] reads no less than 10 µM; that for `COc1ccc(-c2nc(-c3ccncc3)nn2CCN(C(=O)Nc2c(F)cccc2F)C2CCCC2)cc1Cl` [Entry 117, N-(2-{5-[3-chloro-4-(methyloxy)phenyl]-3-pyridin-4-yl-1H-1,2,4-triazol-1-yl}ethyl)-N-cyclopentyl-N′-(2,6-difluorophenyl)urea], no less than 10 µM; that for `COc1ccc(-c2nc(-c3ccncc3)nn2CCN(C(=O)Nc2ccccc2Cl)C2CCCC2)cc1Cl` [Entry 118, N-(2-{5-[3-chloro-4-(methyloxy)phenyl]-3-pyridin-4-yl-1H-1,2,4-triazol-1-yl}ethyl)-N′-(2-chlorophenyl)-N-cyclopentylurea], 1 to 10 µM. The result for `COc1ccc(-c2nc(-c3ccncc3)nn2CCN(C(=O)Nc2cccc(Cl)c2Cl)C2CCCC2)cc1Cl` [Entry 119, N-(2-{5-[3-chloro-4-(methyloxy)phenyl]-3-pyridin-4-yl-1H-1,2,4-triazol-1-yl}ethyl)-N-cyclopentyl-N′-(2,3-dichlorophenyl)urea] reads no less than 10 µM; that for `COc1ccc(OC)c(NC(=O)N(CCn2nc(-c3ccncc3)nc2-c2ccc(OC)c(Cl)c2)C2CCCC2)c1` [Entry 120, N′-[2,5-bis(methyloxy)phenyl]-N-(2-{5-[3-chloro-4-(methyloxy)phenyl]-3-pyridin-4-yl-1H-1,2,4-triazol-1-yl}ethyl)-N-cyclopentylurea], no less than 10 µM.

For the origin of these results see patent US8178570B2, “Tie-2 modulators and methods of use” (Exelixis, Inc., priority 2003, dated 2012).
